Measurements from PubChem BioAssay AID2060485 (Molecular Pharmacology Branch, DTP, NCI, 2025).

Test system: A375 multi-cell spheroids with HUVEC/MSC, viability
Experiment: Anticancer human tumor A375 cell line growth inhibition [GQUAD];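 also: spheroids exposed to compounds for seven days before readout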
Conditions: for IC50: curve of first compound; for viability, T/C: stronger effect = lower value
Procedure, shortened: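 Tumor cells were grown as complex spheroids with HUVEC endothelial cells and mesenchymal stem cells as stroma. G-quadruplex stabilizers were combined with targeted agents over half-log dilutions from near the clinical Cmax, or from 10 microM.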

[1] = second compound 0.0316 µM, first compound 0.0316 µM
[2] = second compound 0.0316 µM, first compound 0.1 µM
[3] = second compound 0.0316 µM, first compound 0.316 µM
[4] = second compound 0.0316 µM, first compound 1 µM
[5] = second compound 0.0316 µM, first compound 3.16 µM
[6] = second compound 0.0316 µM, first compound 10 µM
[7] = second compound 0.1 µM, first compound 0.0316 µM
[8] = second compound 0.1 µM, first compound 0.1 µM
[9] = second compound 0.1 µM, first compound 0.316 µM
[10] = second compound 0.1 µM, first compound 1 µM
[11] = second compound 0.1 µM, first compound 3.16 µM
[12] = second compound 0.1 µM, first compound 10 µM
[13] = second compound 0.316 µM, first compound 0.0316 µM
[14] = second compound 0.316 µM, first compound 0.1 µM
[15] = second compound 0.316 µM, first compound 0.316 µM
[16] = second compound 0.316 µM, first compound 1 µM
[17] = second compound 0.316 µM, first compound 3.16 µM
[18] = second compound 0.316 µM, first compound 10 µM
[19] = second compound 1 µM, first compound 0.0316 µM
[20] = second compound 1 µM, first compound 0.1 µM
[21] = second compound 1 µM, first compound 0.316 µM
[22] = second compound 1 µM, first compound 1 µM
[23] = second compound 1 µM, first compound 3.16 µM
[24] = second compound 1 µM, first compound 10 µM
[25] = second compound 3.16 µM, first compound 0.0316 µM
[26] = second compound 3.16 µM, first compound 0.1 µM
[27] = second compound 3.16 µM, first compound 0.316 µM
[28] = second compound 3.16 µM, first compound 1 µM
[29] = second compound 3.16 µM, first compound 3.16 µM
[30] = second compound 3.16 µM, first compound 10 µM
[31] = second compound 10 µM, first compound 0.0316 µM
[32] = second compound 10 µM, first compound 0.1 µM
[33] = second compound 10 µM, first compound 0.316 µM
[34] = second compound 10 µM, first compound 1 µM
[35] = second compound 10 µM, first compound 3.16 µM
[36] = second compound 10 µM, first compound 10 µM

## O=C(NO)c1cnc(N2CCN(S(=O)(=O)c3ccc4ccccc4c3)CC2)nc1 + CN(C)c1ccc(Nc2c3ccc(NC(=O)CCN4CCCC4)cc3nc3cc(NC(=O)CCN4CCCC4)ccc23)cc1
Second compound 0.0316 µM
  IC50: 188 nM
Second compound 0.1 µM
  IC50: 191 nM
Second compound 0.316 µM
  IC50: 186 nM
Second compound 1 µM
  IC50: 190 nM
Second compound 3.16 µM
  IC50: 189 nM
Second compound 10 µM
  IC50: 189 nM
[1]
  viability, T/C: 121%
[2]
  viability, T/C: 105%
[3]
  viability, T/C: 4.84%
[4]
  viability, T/C: 0.29%
[5]
  viability, T/C: 0.27%
[6]
  viability, T/C: 0.29%
[7]
  viability, T/C: 107%
[8]
  viability, T/C: 108%
[9]
  viability, T/C: 5.35%
[10]
  viability, T/C: 0.26%
[11]
  viability, T/C: 0.22%
[12]
  viability, T/C: 0.25%
[13]
  viability, T/C: 108%
[14]
  viability, T/C: 103%
[15]
  viability, T/C: 4.36%
[16]
  viability, T/C: 0.25%
[17]
  viability, T/C: 0.21%
[18]
  viability, T/C: 0.23%
[19]
  viability, T/C: 104%
[20]
  viability, T/C: 110%
[21]
  viability, T/C: 5.11%
[22]
  viability, T/C: 0.26%
[23]
  viability, T/C: 0.2%
[24]
  viability, T/C: 0.22%
[25]
  viability, T/C: 103%
[26]
  viability, T/C: 110%
[27]
  viability, T/C: 4.25%
[28]
  viability, T/C: 0.25%
[29]
  viability, T/C: 0.22%
[30]
  viability, T/C: 0.24%
[31]
  viability, T/C: 102%
[32]
  viability, T/C: 107%
[33]
  viability, T/C: 6.02%
[34]
  viability, T/C: 0.26%
[35]
  viability, T/C: 0.93%
[36]
  viability, T/C: 0.25%

## CC1COCCN1c1cc(-c2ccnn2C)c2ccnc(-c3ccn[nH]3)c2n1 (stereo not drawn) + Cc1[nH]c2ccc(F)cc2c1-c1nc2c3cccnc3c3ncccc3c2[nH]1
Second compound 0.0316 µM
  IC50: 628 nM
Second compound 0.1 µM
  IC50: 613 nM
Second compound 0.316 µM
  IC50: 454 nM
Second compound 1 µM
  IC50: 384 nM
Second compound 3.16 µM
  IC50: 35.1 nM
Second compound 10 µM
  IC50: 52.7 nM
[1]
  viability, T/C: 111%
[2]
  viability, T/C: 108%
[3]
  viability, T/C: 75.3%
[4]
  viability, T/C: 33.3%
[5]
  viability, T/C: 13.1%
[6]
  viability, T/C: 12.3%
[7]
  viability, T/C: 116%
[8]
  viability, T/C: 113%
[9]
  viability, T/C: 66.4%
[10]
  viability, T/C: 39%
[11]
  viability, T/C: 12.2%
[12]
  viability, T/C: 10.8%
[13]
  viability, T/C: 114%
[14]
  viability, T/C: 128%
[15]
  viability, T/C: 62.6%
[16]
  viability, T/C: 34%
[17]
  viability, T/C: 13.5%
[18]
  viability, T/C: 12.7%
[19]
  viability, T/C: 97.7%
[20]
  viability, T/C: 87.3%
[21]
  viability, T/C: 52.1%
[22]
  viability, T/C: 30%
[23]
  viability, T/C: 15.6%
[24]
  viability, T/C: 14%
[25]
  viability, T/C: 52.7%
[26]
  viability, T/C: 29.4%
[27]
  viability, T/C: 23%
[28]
  viability, T/C: 18.2%
[29]
  viability, T/C: 11.8%
[30]
  viability, T/C: 9.5%
[31]
  viability, T/C: 63.3%
[32]
  viability, T/C: 30.2%
[33]
  viability, T/C: 27.9%
[34]
  viability, T/C: 21.4%
[35]
  viability, T/C: 18%
[36]
  viability, T/C: 11.7%

## CC1COCCN1c1cc(C2(O)CC3CCC(C2)O3)c2cnn(-c3ccn[nH]3)c2n1 (stereo not drawn) + Cc1[nH]c2ccc(F)cc2c1-c1nc2c3cccnc3c3ncccc3c2[nH]1
Second compound 0.0316 µM
  IC50: 339 nM
Second compound 0.1 µM
  IC50: 352 nM
Second compound 0.316 µM
  IC50: 282 nM
Second compound 1 µM
  IC50: 210 nM
Second compound 3.16 µM
  IC50: < 31.6 nM
Second compound 10 µM
  IC50: < 31.6 nM
[1]
  viability, T/C: 114%
[2]
  viability, T/C: 103%
[3]
  viability, T/C: 51.9%
[4]
  viability, T/C: 16.9%
[5]
  viability, T/C: 12.2%
[6]
  viability, T/C: 8.69%
[7]
  viability, T/C: 113%
[8]
  viability, T/C: 94.9%
[9]
  viability, T/C: 54%
[10]
  viability, T/C: 18%
[11]
  viability, T/C: 13.2%
[12]
  viability, T/C: 7.58%
[13]
  viability, T/C: 122%
[14]
  viability, T/C: 85%
[15]
  viability, T/C: 47.8%
[16]
  viability, T/C: 19.7%
[17]
  viability, T/C: 13.3%
[18]
  viability, T/C: 9.21%
[19]
  viability, T/C: 79.1%
[20]
  viability, T/C: 67.4%
[21]
  viability, T/C: 40.7%
[22]
  viability, T/C: 16.6%
[23]
  viability, T/C: 13.3%
[24]
  viability, T/C: 8.26%
[25]
  viability, T/C: 31.5%
[26]
  viability, T/C: 17.9%
[27]
  viability, T/C: 13.5%
[28]
  viability, T/C: 11.2%
[29]
  viability, T/C: 6.29%
[30]
  viability, T/C: 1.15%
[31]
  viability, T/C: 39%
[32]
  viability, T/C: 18.9%
[33]
  viability, T/C: 18.6%
[34]
  viability, T/C: 9.83%
[35]
  viability, T/C: 11.4%
[36]
  viability, T/C: 3.18%

## CC1COCCN1c1cc(C2(S(C)(=N)=O)CC2)nc(-c2ccnc3[nH]ccc23)n1 (stereo not drawn) + Cc1[nH]c2ccc(F)cc2c1-c1nc2c3cccnc3c3ncccc3c2[nH]1
Second compound 0.0316 µM
  IC50: 7110 nM
Second compound 0.1 µM
  IC50: 8020 nM
Second compound 0.316 µM
  IC50: 9010 nM
Second compound 1 µM
  IC50: 7960 nM
Second compound 3.16 µM
  IC50: 1300 nM
Second compound 10 µM
  IC50: 2110 nM
[1]
  viability, T/C: 105%
[2]
  viability, T/C: 107%
[3]
  viability, T/C: 99.4%
[4]
  viability, T/C: 92%
[5]
  viability, T/C: 64.5%
[6]
  viability, T/C: 43.9%
[7]
  viability, T/C: 113%
[8]
  viability, T/C: 106%
[9]
  viability, T/C: 107%
[10]
  viability, T/C: 98.2%
[11]
  viability, T/C: 74.4%
[12]
  viability, T/C: 44.2%
[13]
  viability, T/C: 106%
[14]
  viability, T/C: 105%
[15]
  viability, T/C: 112%
[16]
  viability, T/C: 109%
[17]
  viability, T/C: 78.7%
[18]
  viability, T/C: 47.2%
[19]
  viability, T/C: 108%
[20]
  viability, T/C: 109%
[21]
  viability, T/C: 115%
[22]
  viability, T/C: 112%
[23]
  viability, T/C: 82%
[24]
  viability, T/C: 42%
[25]
  viability, T/C: 107%
[26]
  viability, T/C: 88.7%
[27]
  viability, T/C: 83.3%
[28]
  viability, T/C: 57%
[29]
  viability, T/C: 27.8%
[30]
  viability, T/C: 12.9%
[31]
  viability, T/C: 94.5%
[32]
  viability, T/C: 107%
[33]
  viability, T/C: 104%
[34]
  viability, T/C: 74.9%
[35]
  viability, T/C: 36.9%
[36]
  viability, T/C: 15.4%
